pIC50: −log10 of the molar value.
How the values were obtained:
THP-1 [1] = experiment: Anti-inflammatory activity in human THP1 cells assessed as inhibition of PMA-induced IL-1beta production after 48 hrs by ELISA; format: functional, cell-based; conditions: THP-1, 48 h
THP-1 [2] = experiment: Anti-inflammatory activity in human THP1 cells assessed as inhibition of PMA-induced MCP-1 production after 48 hrs by ELISA; format: functional, cell-based; conditions: THP-1, 48 h
[3] = Cytotoxicity against human THP1 cells assessed as cell viability at 20 uM after 48 hrs by trypan blue dye exclusion assay; format: functional; conditions: THP-1, 48 h, read-out: Activity

SMILES | pIC50 (THP-1 [1]) | pIC50 (THP-1 [2]) | viability at 20 µM [3] [%]
COC(=O)c1cc2c(nc1C)-c1ccccc1CCC2 | 5.09 | < 4.70 | 97.2
COC(=O)c1cc2c(nc1C)-c1cc(C)c(C)cc1CCC2 | 5.07 | 4.80 | 98.3
CCOC(=O)c1cc2c(nc1-c1ccccc1)-c1cc(C)c(C)cc1CCC2 | 4.74 | 5.07 | 97.6
O=C1CCCc2nc3c(cc21)CCCc1ccccc1-3 | < 4.70 | < 4.70 | 96.8
CCOC(=O)c1cc2c(nc1C)-c1cc(C)c(C)cc1CCC2 | 5.19 | 5.07 | 95.9
CC1(C)CC(=O)c2cc3c(nc2C1)-c1ccccc1CCC3 | < 4.70 | 5.25 | 98.2
O=C(c1ccccc1)c1cc2c(nc1-c1ccccc1)-c1ccccc1CCC2 | 4.76 | < 4.70 | 99.4
Cc1cc2c(cc1C)-c1nc3c(cc1CCC2)C(=O)CC(C)(C)C3 | < 4.70 | < 4.70 | 105
CC(=O)c1cc2c(nc1C)-c1cc(C)c(C)cc1CCC2 | < 4.70 | 4.83 | 97.6
CN1C(C(=O)Nc2ccccn2)=C(O)c2ccccc2S1(=O)=O [PIROXICAM] | 4.74 |  | 98.1
Cc1cc2c(cc1C)-c1nc3c(cc1CCC2)C(=O)CCC3 | < 4.70 | < 4.70 | 97.1
Cc1cc2c(cc1C)-c1nc(-c3ccccc3)c(C(=O)c3ccccc3)cc1CCC2 | < 4.70 | < 4.70 | 101
CCOC(=O)c1cc2c(nc1C)-c1ccccc1CCC2 | 5.16 | < 4.70 | 99.2
CCOC(=O)c1cc2c(nc1-c1ccccc1)-c1ccccc1CCC2 | < 4.70 | < 4.70 | 103
CC(=O)c1cc2c(nc1C)-c1ccccc1CCC2 | < 4.70 | < 4.70 | 92.3

Source: ChEMBL document CHEMBL3751757, “Three-component, one-pot synthesis of benzo[6,7]cyclohepta[1,2-b]pyridine derivatives under catalyst free conditions and evaluation of their anti-inflammatory activity” (Bioorg Med Chem Lett, 2016)
